Source: ChEMBL document CHEMBL5247614, “An overview of aryl hydrocarbon receptor ligands in the Last two decades (2002-2022): A medicinal chemistry perspective” (Eur J Med Chem, 2022)

Tests used:
[1] = tested on: Saccharomyces cerevisiae; assay: Activation of transcription in yeast expressing AhR and ARNT; assay type: functional, organism-based
[2] = biological target: T1, Aryl hydrocarbon receptor (Homo sapiens, UniProt P35869); assay: Agonist activity at AhR (unknown origin)
T1 sequence (P35869 whole entry): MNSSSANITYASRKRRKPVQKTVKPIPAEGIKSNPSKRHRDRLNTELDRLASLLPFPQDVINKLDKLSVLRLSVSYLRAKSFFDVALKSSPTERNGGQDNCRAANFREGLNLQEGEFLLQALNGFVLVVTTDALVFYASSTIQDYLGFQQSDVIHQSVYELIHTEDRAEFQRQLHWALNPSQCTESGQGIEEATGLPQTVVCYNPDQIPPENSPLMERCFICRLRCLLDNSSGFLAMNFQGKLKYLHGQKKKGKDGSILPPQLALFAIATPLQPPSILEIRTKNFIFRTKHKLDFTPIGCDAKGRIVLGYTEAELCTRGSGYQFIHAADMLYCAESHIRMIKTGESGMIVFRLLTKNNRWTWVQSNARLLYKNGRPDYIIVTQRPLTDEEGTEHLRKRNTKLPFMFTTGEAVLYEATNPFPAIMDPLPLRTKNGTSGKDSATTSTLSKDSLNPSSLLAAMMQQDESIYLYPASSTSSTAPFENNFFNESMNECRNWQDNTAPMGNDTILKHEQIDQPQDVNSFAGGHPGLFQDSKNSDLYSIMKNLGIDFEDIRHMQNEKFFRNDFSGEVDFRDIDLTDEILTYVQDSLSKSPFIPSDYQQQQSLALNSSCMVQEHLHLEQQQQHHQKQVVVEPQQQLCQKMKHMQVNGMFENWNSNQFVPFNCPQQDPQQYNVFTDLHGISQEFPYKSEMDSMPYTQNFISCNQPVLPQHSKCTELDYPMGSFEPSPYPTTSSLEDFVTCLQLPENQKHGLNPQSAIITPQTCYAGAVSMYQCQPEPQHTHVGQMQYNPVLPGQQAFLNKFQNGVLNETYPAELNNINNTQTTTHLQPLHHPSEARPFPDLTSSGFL

[3] = biological target: T1, Aryl hydrocarbon receptor
[4] = biological target: T1, Aryl hydrocarbon receptor; assay: Antagonist activity at AhR (unknown origin) assessed as inhibition of receptor activation
[5] = tested on: CYP1A1; assay: Upregulation of CYP1A1 gene expression in human MDA-MB-468 cells transfected with XRE plasmid containing AhR responsive luciferase construct and renilla luciferase assessed as fold change in gene expression at 1 uM incubated for 24 hrs by dual-glo luciferase assay relative to control; assay type: ADME, cell-based; conditions: read-out: FC
[6] = tested on: CYP1A1; assay: Upregulation of CYP1A1 gene expression in human MDA-MB-468 cells transfected with XRE plasmid containing AhR responsive luciferase construct and renilla luciferase assessed as fold change in gene expression at 1 uM incubated for 1 hr by dual-glo luciferase assay relative to control; assay type: ADME, cell-based; conditions: read-out: FC
[7] = biological target: T1, Aryl hydrocarbon receptor; assay: Activation of human AhR expressed in Saccharomyces cerevisiae YCM3 coexpressing ARNT incubated for 18 hrs
[8] = biological target: T1, Aryl hydrocarbon receptor; assay: Antagonist activity at AhR (unknown origin) expressed in human U87 cells assessed as inhibition of kynurenic acid-induced transactivation by Renilla/Firefly based dual-glo luciferase assay; assay type: cell-based
[9] = Inhibition of kynurenic acid-induced CYP1A1 gene expression in human U-937 cells by qPCR analysis; assay type: ADME, cell-based
[10] = biological target: T1, Aryl hydrocarbon receptor; assay: Antagonist activity at AhR (unknown origin)
[11] = biological target: T1, Aryl hydrocarbon receptor; assay: Antagonist activity at AhR (unknown origin) assessed as inhibition of TCDD-induced luciferase activity
[12] = biological target: T1, Aryl hydrocarbon receptor; assay: Modulator activity at AhR (unknown origin)
[13] = biological target: T1, Aryl hydrocarbon receptor; assay: Binding affinity to AhR (unknown origin) assessed as dissociation constant
[14] = biological target: T2, Aryl hydrocarbon receptor (Rattus norvegicus, UniProt P41738); assay: Antagonist activity at AhR in rat liver cytosol assessed as inhibition of TCDD-induced AhR/DNA complex formation by gel retardation assay; assay type: subcellular
T2 sequence (P41738 whole entry): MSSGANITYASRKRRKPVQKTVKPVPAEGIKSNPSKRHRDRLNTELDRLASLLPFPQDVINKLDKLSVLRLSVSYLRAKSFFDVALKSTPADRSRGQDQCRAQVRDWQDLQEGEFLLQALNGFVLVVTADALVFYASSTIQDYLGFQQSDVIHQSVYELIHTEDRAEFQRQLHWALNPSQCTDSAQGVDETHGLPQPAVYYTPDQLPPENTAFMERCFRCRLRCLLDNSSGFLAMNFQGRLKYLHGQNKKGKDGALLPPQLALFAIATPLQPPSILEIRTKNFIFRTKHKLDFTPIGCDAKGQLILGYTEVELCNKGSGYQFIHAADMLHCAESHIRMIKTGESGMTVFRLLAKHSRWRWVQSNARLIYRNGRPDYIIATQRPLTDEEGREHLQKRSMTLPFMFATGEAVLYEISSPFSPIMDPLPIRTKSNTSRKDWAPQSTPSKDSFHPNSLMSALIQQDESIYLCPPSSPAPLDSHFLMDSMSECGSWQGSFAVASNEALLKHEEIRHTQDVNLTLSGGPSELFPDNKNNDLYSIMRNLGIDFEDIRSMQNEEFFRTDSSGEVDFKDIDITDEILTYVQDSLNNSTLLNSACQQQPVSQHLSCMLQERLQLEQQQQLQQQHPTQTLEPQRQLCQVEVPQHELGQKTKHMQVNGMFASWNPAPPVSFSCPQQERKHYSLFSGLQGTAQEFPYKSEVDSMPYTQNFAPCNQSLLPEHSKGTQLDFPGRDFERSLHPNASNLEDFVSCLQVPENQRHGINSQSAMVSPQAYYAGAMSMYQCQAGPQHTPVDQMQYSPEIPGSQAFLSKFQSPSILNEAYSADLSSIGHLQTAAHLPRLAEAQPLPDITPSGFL

[15] = biological target: T2, Aryl hydrocarbon receptor; assay: Inhibition of TCDD binding to rat liver cytosol AhR; assay type: subcellular

O=C(O)Cc1c[nH]c2ccccc12 [INDOLE-3-ACETIC ACID]
EC50 [1]: 300000 nM

O=c1c(Cc2c[nH]c3ccccc23)nccc2c1[nH]c1ccccc12
EC50 [2]: 12 nM

CC(C)n1cnc2c(NCCc3ccc(O)cc3)nc(-c3csc4ccccc34)nc21
IC50 [3]: 127 nM

c1ccc2c(c1)Nc1nc3ccccc3c3ccnc-2c13
EC50 [2]: 0.01 nM

O=C1CC(C(=O)O)c2c1oc(=O)c1cc(O)c(O)c(O)c21 (centres undefined)
EC70 [4]: 3900 nM

Nc1ccccc1N1C(=O)c2cccc3cccc(c23)C1=O
fold induction at 24 h, 1 µM [5]: 250 | fold induction at 1 h, 1 µM [6]: 25

Clc1cc2c(cc1Cl)Oc1cc(Cl)c(Cl)cc1O2 [2,3,7,8-TETRACHLORODIBENZO-P-DIOXIN]
EC50 [7]: 9 nM

NCCc1c[nH]c2ccccc12 [TRYPTAMINE]
EC50 [1]: 300000 nM

CC(CO)NC(=O)c1cc(-c2ccc(Cl)cc2)nn(-c2cccc(F)c2)c1=O (centres undefined)
IC50 [8]: 39.9 nM | IC50 [9]: 70700 nM

Cc1[nH]c2ccccc2c1C
IC50 [10]: 11000 nM

O=C(NCC(O)C(F)(F)F)c1cc(-c2ccc(OC(F)(F)F)cc2)nn(-c2cccnc2)c1=O (centres undefined)
IC50 [10]: 82.2 nM

N[C@@H](Cc1c[nH]c2ccccc12)C(=O)O [TRYPTOPHAN]
EC50 [1]: 300000 nM

Cc1ccccc1/N=N/c1ccc(NC(=O)c2ccnn2C)c(C)c1
IC50 [11]: 30 nM

c1ccc2c(Cc3c[nH]c4ccccc34)c[nH]c2c1 [ARUNDINE]
EC50 [12]: 78000 nM | Kd [13]: 90 nM

c1ccc2c(c1)[nH]c1cc3c(cc12)[nH]c1ccccc13
Kd [13]: 0.19 nM

Cc1[nH]c2c(C)cccc2c1C
IC50 [10]: 12000 nM

CC(C)c1cnn2c(N[C@@H]3CCc4[nH]c5ccccc5c4C3)nc(-c3cncc(F)c3)nc12
IC50 [10]: < 500 nM

c1ccc2[nH]ccc2c1 [INDOLE]
EC50 [1]: 300000 nM

CCS(=O)(=O)c1ccc2oc(-c3ccc4ccccc4c3)nc2c1 [EZUTROMID]
Kd [13]: 50 nM

COc1ccc(-c2coc3ccccc3c2=O)cc1N
IC50 [14]: 1000 nM | IC50 [15]: 4000 nM
